According to patent US8741659B2, “Composition for measuring the binding affinity between nucleic acid and test substance, and use thereof” (Osaka University, priority 2007, dated 2014):

Columns and labels:
[1] = test system: double strand RNA (SEQ ID NO: 1 hybridized with SEQ ID NO: 3); assay: Fluorescence titration experiment using double strand RNA; format: binding; settings: 1.0 μM compound, double strand RNA 0.0-1.0 μM
Description: (§1) Then, changes in fluorescence intensities were observed.
(§2) Firstly, X2S, X2S(3), X2S(4), X2S(5), X2S(2-Me), and 3,6-X2S(2) were respectively mixed with cacodylate buffer solutions (sodium cacodylate: 10 mM, pH 7.0; NaCl: 100 mM) each at 1.0 μM, so that solutions of the respective compounds were obtained.
As the double strand RNA, an RNA as in FIG. 2 having N representing no base was used. Specifically, an RNA formed by hybridization of an RNA having the base sequence shown in SEQ ID NO: 1 with an RNA having the base sequence shown in SEQ ID NO: 3 was used. The RNA was added to each of the solutions of the above compositions in steps at 0.0 μM, 0.2 μM, 0.4 μM, 0.8 μM, and 1.0 μM.
Each of the solutions to which the RNAs were added was irradiated with light, and a fluorescence intensity was measured. A device used for measuring the fluorescence intensity was the same as that used in Example 13. A variation in a slit width was set to ±3.0 nm during the excitation, and to ±3.0 nm during the measurement of fluorescence.
In each of FIGS. 25 to 30, the horizontal axis represents the fluorescence wavelength, whereas the vertical axis represents the fluorescence intensity.
FIG. 31 is a graph illustrating a relationship between a concentration of the double strand RNA added and a fluorescence intensity of each compound. […]

RRE = assay: Fluorescence titration / evaluation of binding with RRE; set-up: species or system HIV-1; settings: 1.0 μM compound; for reduction of fluorescence intensity (residual fluorescence intensity) on binding RRE: RRE 0.0-1.0 μM; for difference in quenching efficiency between RRE and double strand RNA: FIGS. 41 and 42
Description: In this Example, binding between RRE and X2S was evaluated by a method identical to the method in Example 2.
The […] of RRE is shown in SEQ ID NO: 8. […] RRE was purchased from Hokkaido System Science Co., Ltd.
Firstly, the X2S solution obtained in Example 1 was diluted with a cacodylate buffer solution (sodium cacodylate: 10 mM, pH 7.0; NaCl: 100 mM), so that a concentration of X2S became 2 μM. To the 2-μM X2S solution thus obtained, RRE was added in steps at 0 μM, 1 μM, 2 μM, 3 μM, 4 μM, 5 μM, 6 μM, and 8 μM. Further, a fluorescence intensity of the 2-μM X2S solution was measured at each concentration. The fluorescence intensity was measured in the same manner as in Example 2.
FIG. 7 is a view illustrating a result of evaluation of binding between X2S and RRE. In FIG. 7, the horizontal axis represents the fluorescence wavelength, whereas the vertical axis represents the fluorescence intensity. […] Other figures include such arrows for results of measurements of fluorescence intensities.
FIG. 8 is a view plotting the fluorescence intensities at a measured wavelength of 453 nm shown in the result illustrated in FIG. 7. The horizontal axis represents the concentration of RRE, whereas the vertical axis represents the fluorescence intensity.
as §1
as §2, with “obtained. RRE used in this Example was the same as that used in Example 4. RRE was added to each of the solutions of the respective compounds in steps at 0.0 μM, 0.2 μM, 0.4 μM, 0.8 μM, and 1.0 μM.” for “obtained.”
Each of the solutions to which RRE was added was irradiated with light, and a fluorescence intensity was measured. A device used for measuring the fluorescence intensity was the same as that used in Example 13. A variation in a slit width was also the same as that in Example 14.
FIG. 39 is a graph illustrating a relationship between a concentration of RRE added and a fluorescence intensity of each compound. Further, FIG. 39 is also a view plotting the fluorescence intensities of the respective fluorescence peaks shown in the results illustrated in FIGS. 33 to 38. FIG. 40 is a view plotting residual fluorescence intensities (%) which were obtained based on the results shown in FIGS. 33 to 38, assuming that the fluorescence intensities of the respective fluorescence peaks observed at a concentration of 0.0 μM of RRE were 100%. In each of FIGS. 39 and 40, the horizontal axis represents the concentration of the RNA. In FIG. 39, the vertical axis represents the fluorescence intensity. In FIG. 40, the vertical axis represents the residual fluorescence intensity (%).
FIG. 41 is a view plotting values obtained by dividing (i) the residual fluorescence intensities (%) obtained in the case involving use of the double strand RNA by (ii) the residual fluorescence intensities (%) obtained in the case involving use of RRE. That is, FIG. 41 is a view plotting values obtained by dividing (i) the residual fluorescence intensity (%) shown in FIG. 32 by (ii) the residual fluorescence intensities (%) shown in FIG. 40. FIG. 42 is a view plotting values obtained by subtracting (i) the residual fluorescence intensities (%) obtained in the case involving use of RRE from (ii) the residual fluorescence intensities (%) obtained in the case involving use of the double strand RNA. That is, FIG. 42 is a view plotting values obtained by subtracting (i) the residual fluorescence intensities (%) shown in FIG. 40 from (ii) the residual fluorescence intensities (%) shown in FIG. 32.
In this Example, 1-Pyrenemethanamide, hydrochloride was caused to bind to a double strand RNA or RRE. Then, a change in a fluorescence intensity was observed. […]

Compound	reduction of fluorescence intensity (residual fluorescence intensity) on binding double strand RNA [1]	reduction of fluorescence intensity (residual fluorescence intensity) on binding RRE (RRE)	difference in quenching efficiency between RRE and double strand RNA (RRE)
CC(N)COc1ccc2oc3ccc(OCC(C)N)cc3c(=O)c2c1 (stereo not drawn) [X2S(3), 2,7-bis(2-aminopropoxy)xanthen-9-one]	particularly high reduction rates	particularly high reduction rates	greatest
CCC(N)COc1ccc2oc3ccc(OCC(N)CC)cc3c(=O)c2c1 (stereo not drawn) [X2S(4), 2,7-bis(2-aminobutoxy)xanthen-9-one]	particularly high reduction rates	particularly high reduction rates	greatest
